Test [1] has as its target T1, Glucagon-like peptide 1 receptor (Rattus norvegicus, UniProt P32301).
T1 sequence (P32301 whole entry): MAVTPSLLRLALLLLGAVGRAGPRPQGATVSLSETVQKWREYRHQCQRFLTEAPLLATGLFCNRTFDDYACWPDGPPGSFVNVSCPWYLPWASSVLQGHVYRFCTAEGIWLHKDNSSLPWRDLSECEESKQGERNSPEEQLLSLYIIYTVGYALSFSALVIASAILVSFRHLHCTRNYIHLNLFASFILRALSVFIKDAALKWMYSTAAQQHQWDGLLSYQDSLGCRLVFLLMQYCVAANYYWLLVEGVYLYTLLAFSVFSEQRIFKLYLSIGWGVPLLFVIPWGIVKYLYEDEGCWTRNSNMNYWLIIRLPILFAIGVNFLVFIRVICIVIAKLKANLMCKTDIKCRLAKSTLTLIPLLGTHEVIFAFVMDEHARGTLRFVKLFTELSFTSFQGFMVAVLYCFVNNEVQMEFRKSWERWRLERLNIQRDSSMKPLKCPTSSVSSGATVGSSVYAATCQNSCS
The experiment in a line: Agonist activity at GLP1R in rat INS-1 cells assessed as increase in glucose-stimulated insulin secretion after 1 hr by HTRF assay. Format: cell-based. On the technique in general: TR-FRET usually uses a lanthanide donor and a delayed reading to cut background.

Test [2] deals with T2, Glucagon-like peptide 1 receptor (Homo sapiens, UniProt P43220). The experiment in a line: Agonist activity at human GLP1R expressed in CHO cells assessed as cAMP accumulation incubated for 30 mins by LANCE assay. Format: functional, cell-based. Background: Cyclic AMP is a second messenger, typically raised through Gs and lowered through Gi signalling.
In test [3] the target is T2, Glucagon-like peptide 1 receptor. The test is described as follows: Displacement of [125I]-GLP (7 to 36 residues) from human GLP1R expressed in CHO cell membranes incubated for 30 mins measured after 10 hrs by scintillation proximity assay. (In general: In a radioligand displacement assay an active substance lowers the binding of a labelled ligand.)
Test [4] shares this target. The experiment in a line: Agonist activity at human GLP1R expressed in CHOK1 cells assessed as induction of beta-galactosidase-tagged beta-arrestin2 recruitment incubated for 90 mins by PathHunter enzyme complementation assay. Format: cell-based.

Positions of bridges follow the written chain, without caps; N, C: chain ends. Residues, ends and D or L forms follow the SMILES beside them. Some results are limits rather than exact numbers.

T2 sequence (P43220 whole entry, the tested form may be a part): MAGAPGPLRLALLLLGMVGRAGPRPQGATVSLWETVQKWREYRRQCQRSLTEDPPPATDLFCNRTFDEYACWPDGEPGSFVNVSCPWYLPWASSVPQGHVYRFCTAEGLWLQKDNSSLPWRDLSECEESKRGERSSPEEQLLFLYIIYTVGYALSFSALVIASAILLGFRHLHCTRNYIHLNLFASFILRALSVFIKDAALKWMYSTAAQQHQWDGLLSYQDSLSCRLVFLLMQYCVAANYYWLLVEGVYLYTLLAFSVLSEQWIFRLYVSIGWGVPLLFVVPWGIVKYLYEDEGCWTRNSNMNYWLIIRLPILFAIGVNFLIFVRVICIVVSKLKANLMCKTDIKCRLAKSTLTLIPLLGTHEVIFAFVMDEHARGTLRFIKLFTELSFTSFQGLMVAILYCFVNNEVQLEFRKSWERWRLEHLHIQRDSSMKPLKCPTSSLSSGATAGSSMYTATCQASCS

For the molecule `CC[C@H](C)[C@H](NC(=O)[C@H](Cc1ccccc1)NC(=O)[C@H](CCC(=O)O)NC(=O)[C@H](CCCCN)NC(=O)[C@H](C)NC(=O)[C@H](C)NC(=O)[C@H](CCC(N)=O)NC(=O)CNC(=O)[C@@H]1CCCN1C(=O)[C@H](CC(C)C)NC(=O)[C@H](Cc1ccc(O)cc1)NC(=O)[C@H](CO)NC(=O)[C@H](CO)NC(=O)[C@@H](NC(=O)[C@H](CC(=O)O)NC(=O)[C@H](CO)NC(=O)[C@@H](NC(=O)[C@H](Cc1ccccc1)NC(=O)[C@@H](NC(=O)CNC(=O)[C@H](CCC(=O)O)NC(=O)[C@H](C)NC(=O)[C@@H](N)Cc1cnc[nH]1)[C@@H](C)O)[C@@H](C)O)C(C)C)C(=O)N[C@H]1CCCCNC(=O)C[C@@H](C(=O)NCC(=O)N[C@@H](CCCNC(=N)N)C(=O)NCC(N)=O)NC(=O)[C@H](C(C)C)NC(=O)[C@H](CC(C)C)NC(=O)[C@H](Cc2c[nH]c3ccccc23)NC1=O` (H-HAEGTFTSDVSSYLPGQAAKEFIKWLVDGRG-NH2; lactam 24-28), the EC50 in test [1] is 130 nM; in test [2], 20 nM; in test [4], > 1000 nM. In test [3], the Ki is > 50 nM.

`CC[C@H](C)[C@H](NC(=O)[C@H](Cc1ccccc1)NC(=O)[C@H](CCC(=O)O)NC(=O)[C@H](CCCCN)NC(=O)[C@H](C)NC(=O)[C@H](C)NC(=O)[C@H](CCC(N)=O)NC(=O)[C@H](C)NC(=O)[C@H](CCC(=O)O)NC(=O)[C@@H]1CC(=O)NCCCC[C@H](NC(=O)[C@H](CC(=O)O)NC(=O)[C@H](CO)NC(=O)[C@@H](NC(=O)[C@H](Cc2ccccc2)NC(=O)[C@@H](NC(=O)CNC(=O)[C@H](CCC(=O)O)NC(=O)[C@H](C)NC(=O)[C@@H](N)Cc2cnc[nH]2)[C@@H](C)O)[C@@H](C)O)C(=O)N[C@@H](CO)C(=O)N[C@@H](CO)C(=O)N[C@@H](Cc2ccc(O)cc2)C(=O)N1)C(=O)N[C@H]1CCCCNC(=O)C[C@@H](C(=O)NCC(=O)N[C@@H](CCCNC(=N)N)C(=O)NCC(N)=O)NC(=O)[C@H](C(C)C)NC(=O)[C@H](CC(C)C)NC(=O)[C@H](Cc2c[nH]c3ccccc23)NC1=O` (H-HAEGTFTSDKSSYDEAQAAKEFIKWLVDGRG-NH2; lactam 10-14, 24-28): the results for the EC50 in test [1], in test [2] and in test [4] were 0.25 nM, 0.004 nM and 11 nM, respectively. The same molecule came in with a Ki in test [3] of 1.4 nM.

In general, EC50 refers to the concentration giving half of the maximal effect. One may read the Ki as the equilibrium dissociation constant of an inhibitor or competing ligand from its target. A higher Ki goes with lower affinity.

Source of the values: ChEMBL document CHEMBL3994575, “Helixconstraints and amino acid substitution in GLP-1 increase cAMP and insulin secretion but not beta-arrestin 2 signaling” (Eur J Med Chem, 2017).
